Experimental data taken from US9573911B2, “Diphosphate mimetics and uses thereof” (President and Fellows of Harvard College, priority 2011, dated 2017).

What was measured:
Assay in all cases: Kinase profiling, Invitrogen Z'-LYTE
Type in all cases: biochemical
Conditions in all cases: Table 2
PRKD1 (PKC mu) = biological target: T1, PRKD1 (PKC mu) (Homo sapiens, UniProt Q15139)
T1 construct: purchased Invitrogen
T1 sequence (Q15139 1-912): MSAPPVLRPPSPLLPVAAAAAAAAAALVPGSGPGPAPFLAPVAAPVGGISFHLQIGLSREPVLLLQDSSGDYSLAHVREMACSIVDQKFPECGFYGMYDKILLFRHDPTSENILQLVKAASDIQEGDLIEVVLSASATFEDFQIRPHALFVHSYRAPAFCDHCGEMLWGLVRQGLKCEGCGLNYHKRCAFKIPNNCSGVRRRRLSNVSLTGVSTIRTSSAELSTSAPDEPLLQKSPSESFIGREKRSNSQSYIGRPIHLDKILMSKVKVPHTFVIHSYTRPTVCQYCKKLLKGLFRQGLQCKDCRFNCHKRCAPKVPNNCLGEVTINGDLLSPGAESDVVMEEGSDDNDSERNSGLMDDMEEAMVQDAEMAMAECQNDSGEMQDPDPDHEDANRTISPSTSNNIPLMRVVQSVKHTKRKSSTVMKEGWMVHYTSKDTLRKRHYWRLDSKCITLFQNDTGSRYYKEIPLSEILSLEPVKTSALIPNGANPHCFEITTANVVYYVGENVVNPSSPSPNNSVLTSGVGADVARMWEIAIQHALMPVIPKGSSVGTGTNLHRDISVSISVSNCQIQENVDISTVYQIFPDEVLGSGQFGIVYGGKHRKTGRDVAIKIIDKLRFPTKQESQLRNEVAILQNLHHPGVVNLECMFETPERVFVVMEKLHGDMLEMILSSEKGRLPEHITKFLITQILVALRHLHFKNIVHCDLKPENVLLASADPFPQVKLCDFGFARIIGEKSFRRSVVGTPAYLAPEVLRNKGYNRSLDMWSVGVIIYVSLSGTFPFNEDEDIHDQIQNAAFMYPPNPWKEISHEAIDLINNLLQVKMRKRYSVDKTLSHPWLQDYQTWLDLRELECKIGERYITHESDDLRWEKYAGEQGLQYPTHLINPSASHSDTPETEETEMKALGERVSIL
Method: (§1) Kinase profiling was conducted using Invitrogen Z'-LYTE screening protocol and assay conditions found at www.invitrogen.com. Compound (2) inhibited PLK1 completely at 5 μM.

RET = biological target: T2, RET (Homo sapiens, UniProt P07949)
T2 construct: purchased Invitrogen
T2 sequence (P07949 29-1114): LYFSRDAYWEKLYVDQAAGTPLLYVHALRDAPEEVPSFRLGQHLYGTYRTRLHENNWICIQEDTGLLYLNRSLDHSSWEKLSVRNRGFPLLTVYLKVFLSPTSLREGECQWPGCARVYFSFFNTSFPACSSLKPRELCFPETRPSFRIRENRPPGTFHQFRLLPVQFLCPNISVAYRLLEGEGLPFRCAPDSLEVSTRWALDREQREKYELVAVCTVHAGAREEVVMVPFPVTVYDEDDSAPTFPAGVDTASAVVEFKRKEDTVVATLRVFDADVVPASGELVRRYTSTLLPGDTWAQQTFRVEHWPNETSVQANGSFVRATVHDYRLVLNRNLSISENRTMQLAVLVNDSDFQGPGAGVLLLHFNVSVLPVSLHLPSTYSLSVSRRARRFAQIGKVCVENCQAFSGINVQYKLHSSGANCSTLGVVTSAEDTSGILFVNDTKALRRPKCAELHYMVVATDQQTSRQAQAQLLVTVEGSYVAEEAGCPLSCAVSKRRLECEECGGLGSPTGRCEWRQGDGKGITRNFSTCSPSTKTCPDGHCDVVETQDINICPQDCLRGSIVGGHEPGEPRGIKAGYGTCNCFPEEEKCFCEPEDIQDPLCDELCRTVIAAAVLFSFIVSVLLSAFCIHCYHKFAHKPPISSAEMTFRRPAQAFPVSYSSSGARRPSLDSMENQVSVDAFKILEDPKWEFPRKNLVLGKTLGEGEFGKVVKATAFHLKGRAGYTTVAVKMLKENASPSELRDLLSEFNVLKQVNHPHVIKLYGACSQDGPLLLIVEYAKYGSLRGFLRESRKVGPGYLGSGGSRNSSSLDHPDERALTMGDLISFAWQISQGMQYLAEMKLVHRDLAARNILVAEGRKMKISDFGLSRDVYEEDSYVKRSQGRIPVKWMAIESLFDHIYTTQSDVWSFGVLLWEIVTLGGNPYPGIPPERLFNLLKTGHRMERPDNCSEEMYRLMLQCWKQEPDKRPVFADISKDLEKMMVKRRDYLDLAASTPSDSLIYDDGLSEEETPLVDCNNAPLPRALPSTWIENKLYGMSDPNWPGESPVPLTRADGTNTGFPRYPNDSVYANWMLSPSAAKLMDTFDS
Method: as §1

SRPK2 = biological target: T3, SRPK2 (Homo sapiens, UniProt P78362)
T3 construct: purchased Invitrogen
T3 sequence (P78362 whole entry): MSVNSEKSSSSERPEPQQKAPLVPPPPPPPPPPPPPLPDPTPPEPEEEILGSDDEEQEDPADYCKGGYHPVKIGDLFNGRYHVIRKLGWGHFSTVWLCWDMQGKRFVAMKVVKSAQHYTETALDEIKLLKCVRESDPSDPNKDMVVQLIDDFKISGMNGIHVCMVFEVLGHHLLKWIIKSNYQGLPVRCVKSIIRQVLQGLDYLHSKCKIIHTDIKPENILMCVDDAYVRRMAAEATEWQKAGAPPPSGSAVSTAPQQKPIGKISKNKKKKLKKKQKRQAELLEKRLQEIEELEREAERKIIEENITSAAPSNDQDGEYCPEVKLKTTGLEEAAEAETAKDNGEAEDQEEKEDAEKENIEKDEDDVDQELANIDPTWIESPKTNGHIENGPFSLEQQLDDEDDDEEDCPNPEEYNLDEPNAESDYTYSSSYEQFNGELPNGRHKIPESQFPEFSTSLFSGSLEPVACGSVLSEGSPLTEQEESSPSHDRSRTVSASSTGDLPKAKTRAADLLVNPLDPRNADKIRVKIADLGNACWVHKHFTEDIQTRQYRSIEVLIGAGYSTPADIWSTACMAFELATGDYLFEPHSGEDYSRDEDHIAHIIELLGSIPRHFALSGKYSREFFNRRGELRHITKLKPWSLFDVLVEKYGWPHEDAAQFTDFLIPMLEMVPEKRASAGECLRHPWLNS
Method: as §1

EPHA1 = biological target: T4, EPHA1 (Homo sapiens, UniProt P21709)
T4 construct: purchased Invitrogen
T4 sequence (P21709 26-976): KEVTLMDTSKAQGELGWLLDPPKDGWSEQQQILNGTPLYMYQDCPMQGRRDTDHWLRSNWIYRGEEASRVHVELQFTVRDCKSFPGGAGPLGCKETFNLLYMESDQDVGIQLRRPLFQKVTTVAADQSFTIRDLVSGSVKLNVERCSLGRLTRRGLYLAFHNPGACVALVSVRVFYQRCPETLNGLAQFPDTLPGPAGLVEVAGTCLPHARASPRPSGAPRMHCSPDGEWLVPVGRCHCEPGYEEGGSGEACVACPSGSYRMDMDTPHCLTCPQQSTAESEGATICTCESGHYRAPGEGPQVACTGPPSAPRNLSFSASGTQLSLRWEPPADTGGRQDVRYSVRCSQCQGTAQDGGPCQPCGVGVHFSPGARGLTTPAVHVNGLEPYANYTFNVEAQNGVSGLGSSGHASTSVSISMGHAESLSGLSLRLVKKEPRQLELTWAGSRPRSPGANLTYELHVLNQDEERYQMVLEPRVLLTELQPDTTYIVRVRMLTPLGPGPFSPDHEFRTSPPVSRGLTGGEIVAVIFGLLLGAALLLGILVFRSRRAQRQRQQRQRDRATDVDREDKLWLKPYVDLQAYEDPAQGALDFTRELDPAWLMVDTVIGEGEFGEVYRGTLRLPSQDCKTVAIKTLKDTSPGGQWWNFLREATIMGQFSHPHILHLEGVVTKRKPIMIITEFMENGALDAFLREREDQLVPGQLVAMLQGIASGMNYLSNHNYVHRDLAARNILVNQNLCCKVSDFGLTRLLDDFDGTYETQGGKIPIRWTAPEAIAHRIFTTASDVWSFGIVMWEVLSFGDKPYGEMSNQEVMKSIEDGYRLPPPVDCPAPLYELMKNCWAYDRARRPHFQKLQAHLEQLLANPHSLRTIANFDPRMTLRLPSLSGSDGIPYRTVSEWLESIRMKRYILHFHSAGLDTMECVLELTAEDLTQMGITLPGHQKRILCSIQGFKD
Method: as §1

FER = biological target: T5, FER (Homo sapiens, UniProt P16591)
T5 construct: purchased Invitrogen
T5 sequence (P16591 whole entry): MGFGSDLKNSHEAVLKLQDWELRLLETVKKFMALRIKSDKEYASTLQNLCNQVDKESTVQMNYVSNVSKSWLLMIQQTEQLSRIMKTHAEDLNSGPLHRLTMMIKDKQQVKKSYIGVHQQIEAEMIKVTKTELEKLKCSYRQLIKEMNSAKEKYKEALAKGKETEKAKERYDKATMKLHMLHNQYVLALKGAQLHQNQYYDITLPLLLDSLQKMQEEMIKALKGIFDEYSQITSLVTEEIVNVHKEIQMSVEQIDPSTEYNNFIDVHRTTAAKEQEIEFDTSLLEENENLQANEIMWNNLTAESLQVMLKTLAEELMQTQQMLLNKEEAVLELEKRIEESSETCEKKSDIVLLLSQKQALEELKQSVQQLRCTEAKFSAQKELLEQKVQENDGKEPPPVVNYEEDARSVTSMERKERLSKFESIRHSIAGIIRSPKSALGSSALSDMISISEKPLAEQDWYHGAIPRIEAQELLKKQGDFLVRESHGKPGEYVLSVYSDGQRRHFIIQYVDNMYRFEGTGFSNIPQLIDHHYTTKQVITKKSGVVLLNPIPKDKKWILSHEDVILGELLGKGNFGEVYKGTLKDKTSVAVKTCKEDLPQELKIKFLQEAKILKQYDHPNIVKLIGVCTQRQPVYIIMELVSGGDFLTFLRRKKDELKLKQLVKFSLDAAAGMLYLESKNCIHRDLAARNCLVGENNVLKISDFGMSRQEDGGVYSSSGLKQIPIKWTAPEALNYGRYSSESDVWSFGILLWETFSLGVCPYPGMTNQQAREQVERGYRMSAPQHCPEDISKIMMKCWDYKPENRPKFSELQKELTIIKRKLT
Method: as §1

FGR = biological target: T6, FGR (Homo sapiens, UniProt P09769)
T6 construct: purchased Invitrogen
T6 sequence (P09769 whole entry): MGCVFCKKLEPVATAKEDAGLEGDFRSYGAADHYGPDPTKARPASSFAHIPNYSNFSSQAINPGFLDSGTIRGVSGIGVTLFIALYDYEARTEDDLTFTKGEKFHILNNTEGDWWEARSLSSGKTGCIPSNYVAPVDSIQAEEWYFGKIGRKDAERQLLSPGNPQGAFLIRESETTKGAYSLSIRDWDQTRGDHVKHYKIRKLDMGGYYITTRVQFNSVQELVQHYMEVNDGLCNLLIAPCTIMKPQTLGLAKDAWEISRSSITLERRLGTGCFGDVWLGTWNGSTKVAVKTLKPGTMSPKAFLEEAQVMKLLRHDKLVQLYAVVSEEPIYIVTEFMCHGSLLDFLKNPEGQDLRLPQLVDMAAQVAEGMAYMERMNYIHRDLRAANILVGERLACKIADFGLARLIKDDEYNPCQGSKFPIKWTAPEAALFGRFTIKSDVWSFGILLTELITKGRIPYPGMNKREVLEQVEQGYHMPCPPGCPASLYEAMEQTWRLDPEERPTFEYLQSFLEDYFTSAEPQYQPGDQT
Method: as §1

`COc1ccc(OC(=O)n2c(=O)oc3cc(C(C)=O)ccc32)cc1` [Compound 2] was tested, and the “% Inhibition Point 1” value (PRKD1 (PKC mu)) was −137%, the “% Inhibition Point 2” value (PRKD1 (PKC mu)) was −151% and the “% Inhibition mean” value (PRKD1 (PKC mu)) was −144%. The “% Inhibition Point 1” value (RET) was −91%, the “% Inhibition Point 2” value (RET) was −70% and the “% Inhibition mean” value (RET) was −80%. For the same compound, the “% Inhibition Point 1” value (SRPK2) was −155%, the “% Inhibition Point 2” value (SRPK2) was −160% and the “% Inhibition mean” value (SRPK2) was −158%. The “% Inhibition Point 1” value (EPHA1) was −62%, the “% Inhibition Point 2” value (EPHA1) was −107% and the “% Inhibition mean” value (EPHA1) was −85%. For the same compound, the “% Inhibition Point 1” value (FER) was −261%, the “% Inhibition Point 2” value (FER) was −240% and the “% Inhibition mean” value (FER) was −251%. For the same compound, the “% Inhibition Point 1” value (FGR) was 21%, the “% Inhibition Point 2” value (FGR) was 21% and the “% Inhibition mean” value (FGR) was 21%.
